Source: US11103497B2, “Treatment of imatinib resistant leukemia” (Wyeth LLC, priority 2007, dated 2021)

What was measured:
[1] = patients; cited from earlier work

Row | Compound | melting point | adverse effects [1]
1 | COc1cc(Nc2c(C#N)cnc3cc(OCCN4CCN(C)CC4)c(OC)cc23)c(Cl)cc1Cl [Example 4, 4-[(2,4-Dichloro-5-methoxyphenyl)amino]-6-methoxy-7-[2-(4-methyl-1-piperazinyl)ethoxy]-3-quinolinecarbonitrile] | 165 to 167 °C | 
2 | CCOc1cc2c(Nc3cc(OC)c(Cl)cc3Cl)c(C#N)cnc2cc1OCCCN1CCN(C)CC1 [Example 10, 4-[(2,4-Dichloro-5-methoxyphenyl)amino]-6-ethoxy-7-[3-(4-methylpiperazin-1-yl)propoxy]quinoline-3-carbonitrile] | 137 to 138 °C | 
3 | CCOc1cc2c(Nc3cc(OC)c(Cl)cc3Cl)c(C#N)cnc2cc1OCCCC1CCN(C)CC1 [Example 13, 4-[(2,4-Dichloro-5-methoxyphenyl)amino]-6-ethoxy-7-[3-(1-methylpiperidin-4-yl)propoxy]quinoline-3-carbonitrile] | 148 to 151 °C | 
4 | CCN1CCC(COc2cc3ncc(C#N)c(Nc4cc(OC)c(Cl)cc4Cl)c3cc2OC)CC1 [Example 9, 4-[(2,4-Dichloro-5-methoxyphenyl)amino]-7-[(1-ethylpiperidin-4-yl)methoxy]-6-methoxyquinoline-3-carbonitrile] | 192 to 195 °C | 
5 | CCOc1cc2c(Nc3cc(OC)c(Cl)cc3Cl)c(C#N)cnc2cc1OCCC1CCN(C)CC1 [Example 15, 4-[(2,4-Dichloro-5-methoxyphenyl)amino]-6-ethoxy-7-[2-(1-methylpiperidin-4-yl)ethoxy]quinoline-3-carbonitrile] | 174 to 176 °C | 
6 | CCOc1cc2c(Nc3cc(OC)c(Cl)cc3Cl)c(C#N)cnc2cc1OCCCN1CCN(CC)CC1 [Example 12, 4-[(2,4-Dichloro-5-methoxyphenyl)amino]-6-ethoxy-7-[3-(4-ethylpiperazin-1-yl)propoxy]quinoline-3-carbonitrile] | 127 to 130 °C | 
7 | Cc1nc(Nc2ncc(C(=O)Nc3c(C)cccc3Cl)s2)cc(N2CCN(CCO)CC2)n1 [Dasatinib] |  | hematologic toxicity and edema
8 | CCOc1cc2c(Nc3cc(OC)c(Cl)cc3Cl)c(C#N)cnc2cc1OCCN1CCN(C)CC1 [Example 14, 4-[(2,4-Dichloro-5-methoxyphenyl)amino]-6-ethoxy-7-[2-(4-methyl-1-piperazinyl)ethoxy]quinoline-3-carbonitrile] | 141 to 143 °C | 
